The results in this text go back to patent US11434222B2, “MAGL inhibitors” (H. LUNDBECK A/S, priority 2020, dated 2022).

SMILES strings stand for the structures. Read-outs that look alike come from different tables or passages of the source.

Data set [1] is described as follows: In vitro human hepatocyte stability. Format: in vitro ADME. The settings on record: cryopreserved human hepatocytes (pooled donor), human hepatocytes 0.5×10^6 cells/mL, read-out: Scaled-up unbound CLint. As to the method: The metabolic stability of test articles (1 μM) in commercially sourced, pooled donor, cryopreserved human hepatocytes (0.5×10^6 cells/mL) was determined in duplicate. The CLint reactions (250 μL) were initiated by addition of test compound. Aliquots (25 μL) were taken at 0, 15, 30, 45, 60, 90, 120 and 240 minutes and then protein crashed with ice-cold acetonitrile containing internal standard then centrifuged (3220 g for 25 minutes). Supernatant was used for LC-MS/MS analysis. The in vitro half-life (in vitro t1/2) was determined from the slope value: in vitro t1/2=−0.693/k. Conversion of the in vitro t1/2 (in min) into the scale-up unbound intrinsic clearance (Scaled-up unbound CLint, in mL/min/kg) was done using the following equation (mean of duplicate determinations), with data shown in Table 5: Scaled-up unbound CLint=kV/N×scaling factor. V=incubation volume (0.25 mL); N=number of hepatocytes per well ([…]). Scaling factors for in vivo intrinsic clearance prediction are listed below: […]

Data set [2] is described as follows: Kinetic solubility in PBS. Format: physicochemical. The following applies: aqueous buffer, kinetic from dmso stock. As to the method:
The kinetic solubility of test articles was determined in PBS at pH 2.0 and pH 7.4 in duplicate. A stock solution of test compound in DMSO (10 mM) was incubated at RT for 2 hours with shaking at 1,100 RPM. The sample was then filtered using a vacuum manifold, diluted, and analyzed by LC-MS/MS. Chromatographic conditions: Phenomenex Synergi 4μ Hydro-PR 80A column (2.0×30 mm) coupled with pre-guard column; mobile phase=0.1% formic acid in acetonitrile and 0.1% formic acid in water; flowrate=0.65 mL/min; column temperature=40° C.; injection volume: 3 μL.
Mass conditions: Turbo spray ion source; ESI ionization model; MRM scan type; Collison gas=6 L/min; Curtain gas=30 L/min; Nebulize gas=50 L/min; Auxiliary gas=50 L/min; Temperature=500 degrees C.; Ion spray voltage=+5500 v (positive MRM).
The filtered solution was analyzed and quantified against a standard of known concentration in DMSO using UPLC coupled with mass spectral peak identification and quantitation. Solubility values of the test articles were calculated using Microsoft Excel as follows (DF is the dilution factor): […]

The target of data set [3] is T1, MAGL (Mus musculus, UniProt O35678).
T1 construct: brain proteomes were prepared and analyzed according to previously established methods; from tissue; host or cells: brain of wild-type C57Bl/6J mice
T1 sequence (O35678 1-303): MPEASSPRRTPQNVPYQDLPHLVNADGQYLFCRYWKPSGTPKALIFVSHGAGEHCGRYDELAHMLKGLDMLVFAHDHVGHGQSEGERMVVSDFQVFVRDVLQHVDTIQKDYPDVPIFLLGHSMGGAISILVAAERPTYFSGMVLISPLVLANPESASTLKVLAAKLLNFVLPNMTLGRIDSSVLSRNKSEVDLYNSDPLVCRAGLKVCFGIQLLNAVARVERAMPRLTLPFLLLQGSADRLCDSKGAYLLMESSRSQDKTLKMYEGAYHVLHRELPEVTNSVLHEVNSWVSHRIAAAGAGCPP
Description: In vivo MAGL inhibition in mouse brain proteomes after oral gavage. The following applies: 5 mg/kg oral gavage, 4 h after administration, read-out: MAGL % inh. 5 mg/kg (mouse). As to the method:
Inhibitors were administered to wild-type C57B1/6J by oral gavage in a vehicle of polyethylene glycol. Each animal was sacrificed 4 h following administration and brain proteomes were prepared and analyzed according to previously established methods (See Niphakis, M. J., et al. (2011) ACS Chem. Neurosci. and Long, J. Z., et al. Nat. Chem. Biol. 5:37-44).

For data set [4], the target named is T2, MAGL (Homo sapiens, UniProt Q99685).
T2 construct: PC3 human cell membrane proteomes; endogenous in cells; host or cells: PC3 human cells (membrane proteome)
T2 sequence (Q99685 1-303): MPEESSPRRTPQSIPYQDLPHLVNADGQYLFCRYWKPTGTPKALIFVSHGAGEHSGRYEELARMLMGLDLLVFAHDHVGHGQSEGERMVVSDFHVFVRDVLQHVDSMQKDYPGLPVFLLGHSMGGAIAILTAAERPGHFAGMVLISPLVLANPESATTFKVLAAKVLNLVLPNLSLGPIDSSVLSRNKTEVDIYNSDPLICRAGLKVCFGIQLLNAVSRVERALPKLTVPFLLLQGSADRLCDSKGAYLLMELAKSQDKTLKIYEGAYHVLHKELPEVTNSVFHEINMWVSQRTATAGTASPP
Put plainly: In vitro competitive activity-based protein profiling (PC3 human cell membrane proteomes). Format: biochemical. The method, then:
PC3 human cell membrane proteomes (50 µL, 2.0 mg/mL total protein concentration) were preincubated with varying concentrations of inhibitors at 37° C. After 30 min, the ABPP probe JW912-Bodipy (1.0 µL, 50 µM in DMSO) was added and the mixture was incubated for 30 min at room temperature. Reactions were quenched with SDS loading buffer (15 μL-4×) and run on SDS-PAGE. Following gel imaging, serine hydrolase activity was determined by measuring fluorescent intensity of gel bands corresponding to MAGL using ImageJ 1.43u software. Intensities were converted to percent enzyme activity by normalizing to DMSO controls. IC50 values were determined by fitting percent enzyme activities to a non-linear regression, 4-parameter, sigmoidal dose response function in Prism GraphPad.

Setting [5] is: PBS pH 7.4, RT, read-out: pH 7.4 Solubility (kinetic).

By CLint scaled is commonly meant the capacity of the preparation to metabolise the compound, expressed as a volume cleared per time. For orientation: kinetic solubility means solubility judged after dilution from a stock solution rather than from solid. Consider `O=C(Nc1ccc(-n2cccn2)nc1)C1CC12CCN(C(=O)OC(C(F)(F)F)C(F)(F)F)CC2` (single isomer, unassigned) [Example 29, 1,1,1,3,3,3-hexafluoropropan-2-yl (R or S)-1-((6-(1H-pyrazol-1-yl)pyridin-3-yl)carbamoyl)-6-azaspiro[2.5]octane-6-carboxylate], for which the intrinsic metabolic clearance (CLint scaled) at 1 μM in data set [1] was 32.7 mL/min/kg. Further, in data set [2] (setting [5]), the solubility (kinetic) at 2 h is 8.63 µM. `COc1ccc(NC(=O)[C@@H]2CC23CCN(C(=O)OC(C(F)(F)F)C(F)(F)F)CC3)cn1` (single isomer, unassigned) [Example 36]: the inhibition at 5 mg/kg on MAGL [3] was 0%.

For the molecule `COc1ccc(NC(=O)[C@H]2CC23CCN(C(=O)OC(C(F)(F)F)C(F)(F)F)CC3)cn1` (single isomer, unassigned) [Example 37], on MAGL [3], the inhibition at 5 mg/kg amounted to 25%. Turning to `CN(C(=O)C1CC12CCN(C(=O)OC(C(F)(F)F)C(F)(F)F)CC2)c1cccnc1` (single isomer, unassigned) [Example 43, 1,1,1,3,3,3-hexafluoropropan-2-yl (R or S)-1-(methyl(pyridin-3-yl)carbamoyl)-6-azaspiro[2.5]octane-6-carboxylate], in data set [2] (setting [5]), the kinetic solubility at 2 h is 233 µM. The “MAGL % inh. 1 µM (human PC3)” value on MAGL [4] amounted to 100%. For the same molecule, the inhibition at 5 mg/kg on MAGL [3] came out at 100%. As to `O=C(OC(C(F)(F)F)C(F)(F)F)N1CCC2(CC1)CC2C(=O)N1CCc2ncncc2C1` (single isomer, unassigned) [Example 60, 1,1,1,3,3,3-hexafluoropropan-2-yl (R or S)-1-(5,6,7,8-tetrahydropyrido[4,3-d]pyrimidine-6-carbonyl)-6-azaspiro[2.5]octane-6-carboxylate], the kinetic solubility at 2 h in data set [2] (setting [5]) worked out at 259 µM. At MAGL [4], the “MAGL % inh. 1 µM (human PC3)” value is listed as 100%. The like results for `O=C(NCc1cccc(C(F)(F)F)n1)C1CC12CCN(C(=O)OC(C(F)(F)F)C(F)(F)F)CC2` (single isomer, unassigned) [Example 76, 1,1,1,3,3,3-hexafluoropropan-2-yl (R or S)-1-(((6-(trifluoromethyl)pyridin-2-yl)methyl)carbamoyl)-6-azaspiro[2.5]octane-6-carboxylate] were, in that order, 1.33 µM and 100%. As to `O=C(Nc1ccc(C(F)(F)F)nc1)C1CC12CCN(C(=O)OC(C(F)(F)F)C(F)(F)F)CC2` (single isomer, unassigned) [Example 78, 1,1,1,3,3,3-hexafluoropropan-2-yl (R or S)-1-((6-(trifluoromethyl)pyridin-3-yl)carbamoyl)-6-azaspiro[2.5]octane-6-carboxylate], the solubility (kinetic) at 2 h in data set [2] (PBS pH 2.0, RT, read-out: pH 2 Solubility (kinetic)) turned out to be 17 µM; in data set [2] (setting [5]) it was 12.6 µM. For the same molecule, the “MAGL % inh. 1 µM (human PC3)” value at MAGL [4] came to 100%. Regarding `Cc1ccc(NC(=O)C2CC23CCN(C(=O)OC(C(F)(F)F)C(F)(F)F)CC3)cn1` (single isomer, unassigned) [Example 81, 1,1,1,3,3,3-hexafluoropropan-2-yl (R or S)-1-((6-methylpyridin-3-yl)carbamoyl)-6-azaspiro[2.5]octane-6-carboxylate], the solubility (kinetic) at 2 h in data set [2] (setting [5]) was 130 µM. In addition, the inhibition at 5 mg/kg on MAGL [3] came to 25%.

For `O=C(Nc1cnc(C(F)(F)F)nc1)C1CC12CCN(C(=O)OC(C(F)(F)F)C(F)(F)F)CC2` (single isomer, unassigned) [Example 99, 1,1,1,3,3,3-hexafluoropropan-2-yl (R or S)-1-((2-(trifluoromethyl)pyrimidin-5-yl)carbamoyl)-6-azaspiro[2.5]octane-6-carboxylate], the solubility (kinetic) at 2 h in data set [2] (setting [5]) worked out at 28.5 µM. In addition, the “MAGL % inh. 1 µM (human PC3)” value at MAGL [4] is on record as 100%. For the molecule `Cc1ncc(NC(=O)C2CC23CCN(C(=O)OC(C(F)(F)F)C(F)(F)F)CC3)cn1` (single isomer, unassigned) [Example 103, 1,1,1,3,3,3-hexafluoropropan-2-yl (R or S)-1-((2-methylpyrimidin-5-yl)carbamoyl)-6-azaspiro[2.5]octane-6-carboxylate], the inhibition at 5 mg/kg on MAGL [3] is 50%. In the case of `Cc1ccc(NC(=O)[C@H]2CC23CCN(C(=O)OC(C(F)(F)F)C(F)(F)F)CC3)nn1` (single isomer, unassigned) [Example 106], the inhibition at 5 mg/kg at MAGL [3] was 0%. Same read-out and setting: with `O=C(Nc1ccnnc1)C1CC12CCN(C(=O)OC(C(F)(F)F)C(F)(F)F)CC2` (single isomer, unassigned) [Example 108, 1,1,1,3,3,3-hexafluoropropan-2-yl (R or S)-1-(pyridazin-4-ylcarbamoyl)-6-azaspiro[2.5]octane-6-carboxylate] the figure was 75%. For the molecule `O=C(Nc1cncs1)C1CC12CCN(C(=O)OC(C(F)(F)F)C(F)(F)F)CC2` (single isomer, unassigned) [Example 129, 1,1,1,3,3,3-hexafluoropropan-2-yl (R or S)-1-(thiazol-5-ylcarbamoyl)-6-azaspiro[2.5]octane-6-carboxylate], the intrinsic clearance (CLint scaled) at 1 μM in data set [1] amounted to 53.6 mL/min/kg. Besides, at MAGL [3], the inhibition at 5 mg/kg amounted to 50%. As for `O=C(NCc1ccccc1)[C@H]1CC12CCN(C(=O)OC(C(F)(F)F)C(F)(F)F)CC2` (single isomer, unassigned) [Example 150], in data set [1], the CLint scaled at 1 μM turned out to be 88.8 mL/min/kg. On the same count and under the same terms, under `CC1(CNC(=O)C2CC23CCN(C(=O)OC(C(F)(F)F)C(F)(F)F)CC3)CCOCC1` (single isomer, unassigned) [Example 168, 1,1,1,3,3,3-hexafluoropropan-2-yl (R or S)-1-(((4-methyltetrahydro-2H-pyran-4-yl)methyl)carbamoyl)-6-azaspiro[2.5]octane-6-carboxylate] stands 61.4 mL/min/kg. With `CS(=O)(=O)Nc1ccc(NC(=O)C2CC23CCN(C(=O)OC(C(F)(F)F)C(F)(F)F)CC3)cn1` (single isomer, unassigned) [Example 181, 1,1,1,3,3,3-hexafluoropropan-2-yl (R or S)-1-((6-(methylsulfonamido)pyridin-3-yl)carbamoyl)-6-azaspiro[2.5]octane-6-carboxylate], the CLint scaled at 1 μM in data set [1] came to 1.94 mL/min/kg. For the same molecule, the kinetic solubility at 2 h in data set [2] (setting [5]) amounted to 296 µM. As for `O=C(Nc1cccnn1)[C@@H]1CC12CCN(C(=O)OC(C(F)(F)F)C(F)(F)F)CC2` [Example 5, 1,1,1,3,3,3-Hexafluoropropan-2-yl (R)-1-(pyridazin-3-ylcarbamoyl)-6-azaspiro[2.5]octane-6-carboxylate], on MAGL [3], the inhibition at 5 mg/kg turned out to be 0%.
